Source: ChEMBL document CHEMBL1121567, “Synthesis of some 5-phenylhexahydroazepino[4,5-b]indoles as potential neuroleptic agents” (1980)

Assays:
[1] = test system: Mus musculus; experiment: Effective dose to reverse tetrabenazine ptosis in mouse when administered po; format: functional
[2] = test system: Rattus norvegicus; experiment: Effective dose to block muricidal behavior in rat when administered ip; format: functional

Compound | ED50 [1] [mg/kg] | ED50 [2] [mg/kg]
CN1CCc2c(n(C)c3ccccc23)C(c2ccccc2)C1 (centres undefined) | > 30 | > 20
CN1CCc2c([nH]c3ccccc23)C(c2ccccc2)C1 (centres undefined) | 1 | > 10
c1ccc(C2CNCCc3c2[nH]c2ccccc32)cc1 (centres undefined) | > 30 | 2.1
Cn1c2c(c3ccccc31)CCNCC2c1ccccc1 (centres undefined) | > 30 | > 10
COc1ccc2[nH]c3c(c2c1)CCN(C)CC3c1ccccc1 (centres undefined) | 1.9 | > 10
COc1ccc2[nH]c3c(c2c1)CCNCC3c1ccccc1 (centres undefined) | > 30 | 12.2
CN(C)CCCN1c2ccccc2CCc2ccccc21 [IMIPRAMINE] | 2 | 20.2
